Results published in ChEMBL document CHEMBL1201862, “PubChem BioAssay data set” (2004).
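Tested at 5 concentrations; 48 h exposure; 96-well plates; endpoints linearly interpolated, else capped at highest concentration. At the GI50, growth is halved.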 Active and inactive are the calls of the source. Cut-off read from the data, not from the text of the source: active = GI50 up to about 1.1 µM and inactive = higher.

How the values were obtained:
Experiment in all cases: NCI-60 cell line screen, 48 h
[1] = test system: 786-0
[2] = test system: A549
[3] = test system: ACHN
[4] = test system: CAKI-1
[5] = test system: CCRF-CEM
[6] = test system: COLO 205
[7] = test system: DLD-1
[8] = test system: DMS-114
[9] = test system: DMS-273
[10] = test system: EKVX
[11] = test system: HCC 2998
[12] = test system: HCT-116
[13] = test system: HCT-15
[14] = test system: HL-60
[15] = test system: HOP-18
[16] = test system: HOP-62
[17] = test system: HOP-92
[18] = test system: HT-29
[19] = test system: IGROV-1
[20] = test system: K562
[21] = test system: KM-20L2
[22] = test system: KM12
[23] = test system: LOX IMVI
[24] = test system: LXFL 529
[25] = test system: M14
[26] = test system: M19-MEL
[27] = test system: MOLT-4
[28] = test system: Malme-3M
[29] = test system: NCI-H226
[30] = test system: NCI-H23
[31] = test system: NCI-H460
[32] = test system: OVCAR-3
[33] = test system: OVCAR-4
[34] = test system: OVCAR-5
[35] = test system: OVCAR-8
[36] = test system: RPMI-8226
[37] = test system: RXF 393
[38] = test system: SF-268
[39] = test system: SF-295
[40] = test system: SF-539
[41] = test system: SK-MEL-28
[42] = test system: SK-MEL-2
[43] = test system: SK-MEL-5
[44] = test system: SK-OV-3
[45] = test system: SN12C
[46] = test system: SNB-19
[47] = test system: SNB-75
[48] = test system: SNB-78
[49] = test system: SR
[50] = test system: SW-620
[51] = test system: TK-10
[52] = test system: U-251
[53] = test system: UACC-257
[54] = test system: UACC-62
[55] = test system: UO-31
[56] = test system: A498
[57] = test system: NCI-H522

For `CCOC(=O)c1nn2c(nc1=O)sc1ccc3ccccc3c12`, the GI50 [1] was > 100 µM (inactive), the GI50 [2] was > 100 µM (inactive) and the GI50 [3] was > 100 µM (inactive). The GI50 [4] was > 100 µM (inactive), the GI50 [5] was 58.2 µM (inactive) and the GI50 [6] was > 100 µM (inactive). The GI50 [7] was > 100 µM (inactive), the GI50 [8] was > 100 µM (inactive) and the GI50 [9] was > 100 µM (inactive). The GI50 [10] was > 100 µM (inactive), the GI50 [11] was > 100 µM (inactive) and the GI50 [12] was > 100 µM (inactive). For the same molecule, the GI50 [13] was > 100 µM, the GI50 [14] was > 100 µM (inactive) and the GI50 [15] was > 100 µM (inactive). The GI50 [16] was > 100 µM (inactive), the GI50 [17] was > 100 µM (inactive) and the GI50 [18] was > 100 µM (inactive). For the same molecule, the GI50 [19] was > 100 µM (inactive), the GI50 [20] was > 100 µM (inactive) and the GI50 [21] was > 100 µM (inactive). The GI50 [22] was > 100 µM (inactive), the GI50 [23] was > 100 µM (inactive) and the GI50 [24] was > 100 µM (inactive). For the same molecule, the GI50 [25] was > 100 µM (inactive), the GI50 [26] was > 100 µM (inactive) and the GI50 [27] was > 100 µM (inactive). For the same molecule, the GI50 [28] was > 100 µM (inactive), the GI50 [29] was > 100 µM (inactive) and the GI50 [30] was > 100 µM (inactive). The GI50 [31] was > 100 µM (inactive), the GI50 [32] was > 100 µM (inactive) and the GI50 [33] was > 100 µM (inactive). The GI50 [34] was > 100 µM (inactive), the GI50 [35] was > 100 µM (inactive) and the GI50 [36] was > 100 µM (inactive). The GI50 [37] was > 100 µM (inactive), the GI50 [38] was > 100 µM (inactive) and the GI50 [39] was > 100 µM (inactive). The GI50 [40] was > 100 µM (inactive), the GI50 [41] was > 100 µM (inactive) and the GI50 [42] was > 100 µM (inactive). For the same molecule, the GI50 [43] was > 100 µM (inactive), the GI50 [44] was > 100 µM (inactive) and the GI50 [45] was > 100 µM (inactive). For the same molecule, the GI50 [46] was > 100 µM (inactive), the GI50 [47] was > 100 µM (inactive) and the GI50 [48] was > 100 µM (inactive). The GI50 [49] was > 100 µM (inactive), the GI50 [50] was > 100 µM (inactive) and the GI50 [51] was > 100 µM (inactive). For the same molecule, the GI50 [52] was > 100 µM (inactive), the GI50 [53] was > 100 µM (inactive) and the GI50 [54] was > 100 µM (inactive). For the same molecule, the GI50 [55] was > 100 µM (inactive).

In the case of `COc1ccc(C2S/C(=C\c3ccccc3)C(=O)N2NC(=O)Cc2ccccc2)cc1` (centres undefined), the GI50 [1] is reported as > 100 µM (inactive), the GI50 [56] is reported as > 100 µM (inactive) and the GI50 [2] is reported as > 100 µM (inactive). The GI50 [3] was > 100 µM (inactive), the GI50 [4] was > 100 µM (inactive) and the GI50 [5] was 49.3 µM (inactive). For the same molecule, the GI50 [6] was > 100 µM (inactive), the GI50 [7] was > 100 µM (inactive) and the GI50 [9] was > 100 µM (inactive). For the same molecule, the GI50 [12] was > 100 µM (inactive), the GI50 [13] was 40.7 µM and the GI50 [14] was 55.8 µM (inactive). For the same molecule, the GI50 [15] was > 100 µM (inactive), the GI50 [16] was > 100 µM (inactive) and the GI50 [17] was > 100 µM (inactive). For the same molecule, the GI50 [18] was > 100 µM (inactive), the GI50 [19] was > 100 µM (inactive) and the GI50 [20] was > 100 µM (inactive). The GI50 [22] was > 100 µM (inactive), the GI50 [23] was > 100 µM (inactive) and the GI50 [24] was > 100 µM (inactive). The GI50 [25] was > 100 µM (inactive), the GI50 [26] was > 100 µM (inactive) and the GI50 [27] was > 100 µM (inactive). For the same molecule, the GI50 [28] was > 100 µM (inactive), the GI50 [29] was > 100 µM (inactive) and the GI50 [30] was > 100 µM (inactive). For the same molecule, the GI50 [31] was > 100 µM (inactive), the GI50 [57] was > 100 µM (inactive) and the GI50 [33] was > 100 µM (inactive). For the same molecule, the GI50 [34] was > 100 µM (inactive), the GI50 [35] was > 100 µM (inactive) and the GI50 [36] was > 100 µM (inactive). The GI50 [37] was > 100 µM (inactive), the GI50 [38] was > 100 µM (inactive) and the GI50 [39] was > 100 µM (inactive). The GI50 [40] was > 100 µM (inactive), the GI50 [41] was 26.1 µM (inactive) and the GI50 [42] was > 100 µM (inactive). For the same molecule, the GI50 [43] was > 100 µM (inactive), the GI50 [44] was > 100 µM (inactive) and the GI50 [45] was > 100 µM (inactive). For the same molecule, the GI50 [47] was > 100 µM (inactive), the GI50 [49] was 68.5 µM (inactive) and the GI50 [50] was > 100 µM (inactive). The GI50 [51] was > 100 µM (inactive), the GI50 [52] was > 100 µM (inactive) and the GI50 [53] was > 100 µM (inactive). The GI50 [54] was > 100 µM (inactive) and the GI50 [55] was > 100 µM (inactive).

`CCCCNC1CCCCC[C@H]1O` (some centres undefined) was tested, and the GI50 [1] was > 100 µM (inactive), the GI50 [2] was > 100 µM (inactive) and the GI50 [3] was > 100 µM (inactive). The GI50 [4] was > 100 µM (inactive), the GI50 [5] was > 100 µM (inactive) and the GI50 [6] was > 100 µM (inactive). The GI50 [7] was > 100 µM (inactive), the GI50 [8] was > 100 µM (inactive) and the GI50 [9] was > 100 µM (inactive). The GI50 [10] was > 100 µM (inactive), the GI50 [11] was > 100 µM (inactive) and the GI50 [12] was > 100 µM (inactive). For the same molecule, the GI50 [14] was > 100 µM (inactive), the GI50 [15] was > 100 µM (inactive) and the GI50 [16] was > 100 µM (inactive). For the same molecule, the GI50 [17] was > 100 µM (inactive), the GI50 [18] was > 100 µM (inactive) and the GI50 [19] was > 100 µM (inactive). The GI50 [20] was > 100 µM (inactive), the GI50 [21] was > 100 µM (inactive) and the GI50 [22] was > 100 µM (inactive). The GI50 [23] was > 100 µM (inactive), the GI50 [24] was > 100 µM (inactive) and the GI50 [25] was > 100 µM (inactive). The GI50 [26] was > 100 µM (inactive), the GI50 [27] was > 100 µM (inactive) and the GI50 [29] was > 100 µM (inactive). For the same molecule, the GI50 [30] was > 100 µM (inactive), the GI50 [31] was > 100 µM (inactive) and the GI50 [57] was > 100 µM (inactive). For the same molecule, the GI50 [32] was > 100 µM (inactive), the GI50 [33] was > 100 µM (inactive) and the GI50 [34] was > 100 µM (inactive). The GI50 [35] was > 100 µM (inactive), the GI50 [36] was > 100 µM (inactive) and the GI50 [37] was > 100 µM (inactive). The GI50 [38] was > 100 µM (inactive), the GI50 [39] was > 100 µM (inactive) and the GI50 [40] was > 100 µM (inactive). The GI50 [41] was > 100 µM (inactive), the GI50 [42] was > 100 µM (inactive) and the GI50 [43] was > 100 µM (inactive). For the same molecule, the GI50 [44] was > 100 µM (inactive), the GI50 [45] was > 100 µM (inactive) and the GI50 [46] was > 100 µM (inactive). The GI50 [47] was > 100 µM (inactive), the GI50 [48] was > 100 µM (inactive) and the GI50 [49] was > 100 µM (inactive). For the same molecule, the GI50 [50] was > 100 µM (inactive), the GI50 [51] was > 100 µM (inactive) and the GI50 [52] was > 100 µM (inactive). For the same molecule, the GI50 [53] was > 100 µM (inactive), the GI50 [54] was > 100 µM (inactive) and the GI50 [55] was > 100 µM (inactive).
